Measurements published in patent publication US6569875B1, “Fungicide mixtures based on pyridin carboxamides and benzimidazoles or the precursors thereof” (priority 1997, dated 2003).

tested on: Botrytis cinerea; experiment: Activity against Botrytis cinerea on bell pepper leaves (sprayed green bell pepper fruit disks, protective); format: in vivo; conditions: single active ingredient, 4 ppm in the spray liquor, inoculated 2 hours after spray coating dried, 18° C., 4 days, visual evaluation
Method: The active ingredients, separately or together, are formulated as a 10% emulsion in a mixture of 63% by weight of cyclohexanone and 27% by eight of emulsifier, and diluted with water to the desired concentration.
Evaluation is carried out by determining the infected leaf areas in percent. These percentages are converted into efficacies. The efficacy (W) is calculated as follows using Abbot's formula: […]
α corresponds to the fungal infection of the treated plants in % and β corresponds to the fungal infection of the untreated (control) plants in % An efficacy of 0 means that the infection level of the treated plants corresponds to that of the untreated control plants; an efficacy of 100 means that the treated plants were not infected.
The expected efficacies of the mixtures of the active ingredients were determined using Colby's formula [R. S. Colby, Weeds 15, 20-22 (1967)] and compared with the observed efficacies.
Colby formula: E=x+Y−x·y/100
E expected efficacy, expressed in % of the untreated control, when using the mixture of the active ingredients A and B at the concentrations a and b x efficacy, expressed in % of the untreated control, when using active ingredient A at the concentration a y efficacy, expressed in % of the untreated control, when using active ingredient B at the concentration b Disks of green bell peppers were sprayed to runoff point with an aqueous preparation of active ingredient which had been prepared from a stock solution comprising 10% of active ingredient, 63% of cyclohexanone and 27% of emulsifier. 2 hours after the spray coating had dried on, the fruit disks were inoculated with a spore suspension of Botrytis cinerea containing 1.7×10^6 spores per ml of a 2% strength Biomalz solution. The inoculated fruit disks were subsequently incubated in humid chambers at 18° C. for 4 days. The Botyrtis infection on the diseased fruit disks was then evaluated visually.

CCCCNC(=O)n1c(NC(=O)OC)nc2ccccc21 [Compound II.a, methyl 1-(butylcarbamoyl)benzimidazol-2-ylcarbamate] and COC(=O)NC(=S)Nc1ccccc1NC(=S)NC(=O)OC [Compound II.f, dimethyl 4,4′-(o-phenylene)-bis(3-thioallophanate)] are the same in “Efficacy in % of the untreated control” value: 10% for the first, 10% for the second.

First: O=C(Nc1ccccc1-c1ccc(Cl)cc1)c1cccnc1Cl [Compound I.2]
Second: O=C(Nc1ccccc1-c1ccc(F)cc1)c1cccnc1Cl [Compound I.1]
The “Efficacy in % of the untreated control” value of the first is higher: 40% for the first, 0% for the second.
